≈ marks a conversion by molar mass, not a printed value. Read-outs that look alike come from different tables or passages of the source.
Key:
Type in all cases: cell-based
[1] = system: A-549 (Lung) human cancer cell line; experiment: In vitro anti-tumor screen, cancer cell antiproliferative assay, A-549
Method: (§1) The following tables summarize the activity of all the synthetic derivatives. […] Lower values represent higher activity.
(§2) ^9 Cancer cell antiproliferative assays were performed by Dr. Takashi Owa, a postdoctoral fellow in the Stuart L. Schreiber research group.

[2] = system: HCT116 (Colon) human cancer cell line; experiment: In vitro anti-tumor screen, cancer cell antiproliferative assay, HCT116
Method: as §1, §2

[3] = system: A375 (Melanoma) human cancer cell line; experiment: In vitro anti-tumor screen, cancer cell antiproliferative assay, A375; details: for IC50: Homo sapiens
Method: as §1, §2

[4] = system: PC-3 (Prostate) human cancer cell line; experiment: In vitro anti-tumor screen, cancer cell antiproliferative assay, PC-3; details: for IC50: Homo sapiens
Method: as §1, §2

[5] = A549, Table 8, additional biological data, first value of cell, read-out: IC50 (ng/mL) Lung
[6] = HCT-116, Table 8, additional biological data, second value of cell, read-out: IC50 (ng/mL) Colon
[7] = A-375, Table 8, additional biological data, third value of cell, read-out: IC50 (ng/mL) Melan.
[8] = Table 8, additional biological data, fourth value of cell, read-out: IC50 (ng/mL) Prost.
[9] = A549, Table 6, A-ring substitution at X2, lung, read-out: IC50 A-549
[10] = Table 5, B-ring substitution at X1, lung, >100 ng/mL considered inactive, read-out: IC50 A-549
[11] = HCT-116, Table 5, B-ring substitution at X1, colon, >100 ng/mL considered inactive, read-out: IC50 HCT-116
[12] = HCT-116, Table 6, A-ring substitution at X2, colon, read-out: IC50 HCT 116
[13] = A-375, Table 5, B-ring substitution at X1, melanoma, >100 ng/mL considered inactive, read-out: IC50 A375
[14] = Table 5, B-ring substitution at X1, prostate, >100 ng/mL considered inactive, read-out: IC50 PC-3
[15] = A-375, Table 6, A-ring substitution at X2, melanoma, read-out: IC50 A375
[16] = Table 6, A-ring substitution at X2, prostate, read-out: IC50 PC-3

Row | SMILES | IC50 [1, 5] | IC50 [2, 6] | IC50 [3, 7] | IC50 [4, 8] | IC50 [1, 10] | IC50 [2, 11] | IC50 [3, 13] | IC50 [4, 14] | also measured
1 | COC1=C(C)C(=O)C2=C(C1=O)[C@@H]1[C@@H]3Cc4c(OC(C)=O)c(C)c5c(c4[C@H](CN4C(=O)c6ccccc6C4=O)N3[C@@H](C#N)[C@H](C2)N1C)OCO5 | 1.1 ng/mL (≈ 1.65 nM) | 0.53 ng/mL (≈ 0.797 nM) | 0.3 ng/mL (≈ 0.451 nM) | 0.45 ng/mL (≈ 0.677 nM) |  |  |  |  | 
2 | COCOc1c(OC)c(C)cc2c1[C@@H]1[C@@H]3Cc4c(OC(C)=O)c(C)c5c(c4[C@H](CN4C(=O)c6ccccc6C4=O)N3[C@@H](C#N)[C@H](C2)N1C)OCO5 | 160 ng/mL (≈ 230 nM) | 51 ng/mL (≈ 73.4 nM) | 46 ng/mL (≈ 66.2 nM) | 68 ng/mL (≈ 97.9 nM) |  |  |  |  | 
3 | COc1c(C)cc2c(c1O)[C@H]1N[C@@H](C2)[C@H](C#N)N2[C@@H](CN3C(=O)c4ccccc4C3=O)c3c(c(OC(C)=O)c(C)c4c3OCO4)C[C@@H]12 | 21 ng/mL (≈ 33 nM) | 3.5 ng/mL (≈ 5.5 nM) | 1.9 ng/mL (≈ 2.98 nM) | 3.3 ng/mL (≈ 5.18 nM) |  |  |  |  | 
4 | COc1c(C)cc2c(c1OC(C)=O)[C@@H]1[C@@H]3Cc4c(OC(C)=O)c(C)c5c(c4[C@H](CN4C(=O)c6ccccc6C4=O)N3[C@@H](C#N)[C@H](C2)N1C)OCO5 | 40 ng/mL (≈ 57.7 nM) | 20 ng/mL (≈ 28.9 nM) | 8.3 ng/mL (≈ 12 nM) | 17 ng/mL (≈ 24.5 nM) |  |  |  |  | 
5 | COc1c(C)c(Br)c2c(c1O)[C@@H]1[C@@H]3Cc4c(OC(C)=O)c(C)c5c(c4[C@H](CN4C(=O)c6ccccc6C4=O)N3[C@@H](C#N)[C@H](C2)N1C)OCO5 | 4.7 ng/mL (≈ 6.44 nM) | 1.3 ng/mL (≈ 1.78 nM) | 0.47 ng/mL (≈ 0.644 nM) | 2 ng/mL (≈ 2.74 nM) |  |  |  |  | 
6 | COc1c(C)cc2c(c1O)[C@@H]1[C@@H]3Cc4c(O)c(C)c5c(c4[C@H](CNC(=O)Cc4ccc(OC(C)=O)cc4)N3[C@@H](C#N)[C@H](C2)N1C)OCO5 | > 100 ng/mL | > 100 ng/mL | > 100 ng/mL | > 100 ng/mL |  |  |  |  | 
7 | COc1c(C)cc2c(c1O)[C@@H]1[C@@H]3CC4=C(C(=O)C(O)=C(C)C4=O)[C@H](CN4C(=O)c5ccccc5C4=O)N3[C@@H](C#N)[C@H](C2)N1C | 48 ng/mL (≈ 80.7 nM) | 13 ng/mL (≈ 21.9 nM) | 2.1 ng/mL (≈ 3.53 nM) | 9 ng/mL (≈ 15.1 nM) |  |  |  |  | 
8 | COc1c(C)cc2c(c1O)[C@@H]1[C@@H]3Cc4c(OC(C)=O)c(C)c5c(c4[C@H](CN4C(=O)c6ccccc6C4=O)N3[C@@H](C#N)[C@H](C2)N1C)OCO5 | 0.67 ng/mL (≈ 1.03 nM) | 0.39 ng/mL (≈ 0.599 nM) | 0.13 ng/mL (≈ 0.2 nM) | 0.34 ng/mL (≈ 0.523 nM) |  |  |  |  | 
9 | COc1c(C)c(Cl)c2c(c1O)[C@@H]1[C@@H]3Cc4c(OC(C)=O)c(C)c5c(c4[C@H](CN4C(=O)c6ccccc6C4=O)N3[C@@H](C#N)[C@H](C2)N1C)OCO5 | 1.9 ng/mL (≈ 2.77 nM) | 0.7 ng/mL (≈ 1.02 nM) | 0.24 ng/mL (≈ 0.35 nM) | 0.73 ng/mL (≈ 1.07 nM) |  |  |  |  | 
10 | COC1=C(C)C(=O)C2=C(C1=O)[C@H](CN1C(=O)c3ccccc3C1=O)N1[C@@H](C#N)[C@@H]3Cc4cc(C)c(OC)c(O)c4[C@H]([C@@H]1C2)N3C | > 100 ng/mL | 24 ng/mL (≈ 39.4 nM) | 9 ng/mL (≈ 14.8 nM) | 22 ng/mL (≈ 36.1 nM) |  |  |  |  | 
11 | COc1c(C)cc2c(c1O)[C@@H]1[C@@H]3Cc4c(OC(C)=O)c(C)c5c(c4[C@H](CN4C(=O)c6ccccc6C4=O)N3[C@@H](C#N)[C@H](C2)N1C)OCO5 [Compound 7] |  |  |  |  | 0.62 ng/mL (≈ 0.953 nM) | 0.25 ng/mL (≈ 0.384 nM) | 0.11 ng/mL (≈ 0.169 nM) | 0.36 ng/mL (≈ 0.553 nM) | IC50 [1, 9]: 0.62 ng/mL (≈ 0.953 nM); IC50 [2, 12]: 0.25 ng/mL (≈ 0.384 nM); IC50 A375 ([3]; Table 6, A-ring substitution at X2, melanoma): 0.11 ng/mL (≈ 0.169 nM); IC50 PC-3 ([4]; Table 6, A-ring substitution at X2, prostate): 0.36 ng/mL (≈ 0.553 nM)
12 | COc1c(C)cc2c(c1O)[C@@H]1[C@@H]3Cc4c(OC(C)=O)c(C)c5c(c4[C@H](CN4C(=O)c6ccc(N)cc6C4=O)N3[C@@H](C#N)[C@H](C2)N1C)OCO5 [Compound 20] |  |  |  |  | 14 ng/mL (≈ 21 nM) | 2.1 ng/mL (≈ 3.15 nM) | 0.79 ng/mL (≈ 1.19 nM) | 2 ng/mL (≈ 3 nM) | 
13 | COc1c(C)cc2c(c1O)[C@@H]1[C@@H]3Cc4c(OC(C)=O)c(C)c5c(c4[C@H](COC(=O)Nc4ccccc4)N3[C@@H](C#N)[C@H](C2)N1C)OCO5 [Compound 22] |  |  |  |  | 4.5 ng/mL (≈ 7.02 nM) | 2.3 ng/mL (≈ 3.59 nM) | 1.9 ng/mL (≈ 2.97 nM) | 2.6 ng/mL (≈ 4.06 nM) | 
14 | COc1c(C)cc2c(c1O)[C@@H]1[C@@H]3Cc4c(OC(C)=O)c(C)c5c(c4[C@H](CN4Cc6ccccc6C4=O)N3[C@@H](C#N)[C@H](C2)N1C)OCO5 [Compound 27] |  |  |  |  | 7.2 ng/mL (≈ 11.3 nM) | 2.2 ng/mL (≈ 3.46 nM) | 0.71 ng/mL (≈ 1.12 nM) | 1.7 ng/mL (≈ 2.67 nM) | 
15 | COc1c(C)cc2c(c1O)[C@@H]1[C@@H]3Cc4c(OC(C)=O)c(C)c5c(c4[C@H](CN4C(=O)c6ccccc6C4O)N3[C@@H](C#N)[C@H](C2)N1C)OCO5 (some centres unmarked) [Compound 28] |  |  |  |  | 22 ng/mL (≈ 33.7 nM) | 2.4 ng/mL (≈ 3.68 nM) | 0.79 ng/mL (≈ 1.21 nM) | 2.7 ng/mL (≈ 4.14 nM) | 
16 | COc1c(C)cc2c(c1O)[C@@H]1[C@@H]3Cc4c(OC(C)=O)c(C)c5c(c4[C@H](CN4C(=O)c6ccncc6C4=O)N3[C@@H](C#N)[C@H](C2)N1C)OCO5 [Compound 32] |  |  |  |  | 11 ng/mL (≈ 16.9 nM) | 2.1 ng/mL (≈ 3.22 nM) | 0.36 ng/mL (≈ 0.552 nM) | 37 ng/mL (≈ 56.8 nM) | 
17 | COc1c(C)cc2c(c1O)[C@@H]1[C@@H]3Cc4c(OS(C)(=O)=O)c(C)c5c(c4[C@H](CN4C(=O)c6ccccc6C4=O)N3[C@@H](C#N)[C@H](C2)N1C)OCO5 [Compound 44] |  |  |  |  |  |  |  |  | IC50 ([1]; A549, read-out: IC50 A-549): 1.2 ng/mL (≈ 1.75 nM); IC50 ([2]; HCT-116, read-out: IC50 HCT 116): 0.4 ng/mL (≈ 0.582 nM); IC50 ([3]; A-375, read-out: IC50 A375): 0.2 ng/mL (≈ 0.291 nM); IC50 ([4]; read-out: IC50 PC-3): 0.59 ng/mL (≈ 0.859 nM)
18 | C=CCOc1c(C)c2c(c3c1C[C@H]1[C@H]4c5c(cc(C)c(OC)c5O)C[C@@H]([C@H](C#N)N1[C@H]3CN1C(=O)c3ccccc3C1=O)N4C)OCO2 [Compound 45] |  |  |  |  |  |  |  |  | IC50 [1, 9]: 5.2 ng/mL (≈ 8.02 nM); IC50 [2, 12]: 2.1 ng/mL (≈ 3.24 nM); IC50 [3, 15]: 0.98 ng/mL (≈ 1.51 nM); IC50 [4, 16]: 3.1 ng/mL (≈ 4.78 nM)
19 | COc1c(C)cc2c(c1O)[C@@H]1[C@@H]3Cc4c(O)c(C)c5c(c4[C@H](CN4C(=O)c6ccccc6C4=O)N3[C@@H](C#N)[C@H](C2)N1C)OCO5 [Compound 48] |  |  |  |  |  |  |  |  | IC50 [1, 9]: 30 ng/mL (≈ 49.3 nM); IC50 [2, 12]: 6 ng/mL (≈ 9.86 nM); IC50 [3, 15]: 2.5 ng/mL (≈ 4.11 nM); IC50 [4, 16]: 7.7 ng/mL (≈ 12.7 nM)
20 | COc1c(C)cc2c(c1O)[C@@H]1[C@@H]3Cc4c(OC(C)=O)c(C)c5c(c4[C@H](CNC(=O)Cc4ccc(O)cc4)N3[C@@H](C#N)[C@H](C2)N1C)OCO5 [Compound 56] |  |  |  |  | > 100 ng/mL | 20 ng/mL (≈ 30.5 nM) | 6.5 ng/mL (≈ 9.93 nM) | 24 ng/mL (≈ 36.7 nM) | 
21 | COc1c(C)cc2c(c1O)[C@@H]1[C@@H]3Cc4c(OC(C)=O)c(C)c5c(c4[C@H](CNC(=O)c4ccccc4)N3[C@@H](C#N)[C@H](C2)N1C)OCO5 [Compound 63] |  |  |  |  |  |  |  |  | IC50 ([1]; A549, read-out: IC50 Lung): 2 ng/mL (≈ 3.2 nM); IC50 ([2]; HCT-116, read-out: IC50 Colon): 0.37 ng/mL (≈ 0.592 nM); IC50 ([3]; A-375, read-out: IC50 Melanoma): 0.22 ng/mL (≈ 0.352 nM); IC50 ([4]; read-out: IC50 Prostate): 0.4 ng/mL (≈ 0.64 nM)
22 | CNC(=O)Oc1c(C)c2c(c3c1C[C@H]1[C@H]4c5c(cc(C)c(OC)c5O)C[C@@H]([C@H](C#N)N1[C@H]3CN1C(=O)c3ccccc3C1=O)N4C)OCO2 [Compound 66] |  |  |  |  |  |  |  |  | IC50 ([1]; A549, Table 7, additional analogs, read-out: IC50 Lung): 8.6 ng/mL (≈ 12.9 nM); IC50 ([2]; HCT-116, Table 7, additional analogs, read-out: IC50 Colon): 1.3 ng/mL (≈ 1.95 nM); IC50 ([3]; A-375, Table 7, additional analogs, read-out: IC50 Melanoma): 0.92 ng/mL (≈ 1.38 nM); IC50 ([4]; Table 7, additional analogs, read-out: IC50 Prostate): 2.1 ng/mL (≈ 3.15 nM)

— USRE41614E1, “Synthetic analogs of ecteinascidin-743” (President and Fellows of Harvard College, priority 1998, dated 2010)
